Measured values from patent publication US9751882B2, “Diaryl[A, G]quinolizidine compound, preparation method therefor, pharmaceutical composition, and uses thereof” (SHANGHAI INSTITUTE OF MATERIA MEDICA, CHINESE ACADEMY OF …, priority 2012, dated 2017).

Columns and labels:
5-HT1A receptor = biological target: T1, 5-HT1A receptor (Homo sapiens, UniProt P08908); assay: Radioligand binding affinity on 5-HT1A receptor ([3H]8-OH-DPAT); conditions: 5-HT1A receptor protein expressed in HEK-293 cells
T1 sequence (P08908 1-422): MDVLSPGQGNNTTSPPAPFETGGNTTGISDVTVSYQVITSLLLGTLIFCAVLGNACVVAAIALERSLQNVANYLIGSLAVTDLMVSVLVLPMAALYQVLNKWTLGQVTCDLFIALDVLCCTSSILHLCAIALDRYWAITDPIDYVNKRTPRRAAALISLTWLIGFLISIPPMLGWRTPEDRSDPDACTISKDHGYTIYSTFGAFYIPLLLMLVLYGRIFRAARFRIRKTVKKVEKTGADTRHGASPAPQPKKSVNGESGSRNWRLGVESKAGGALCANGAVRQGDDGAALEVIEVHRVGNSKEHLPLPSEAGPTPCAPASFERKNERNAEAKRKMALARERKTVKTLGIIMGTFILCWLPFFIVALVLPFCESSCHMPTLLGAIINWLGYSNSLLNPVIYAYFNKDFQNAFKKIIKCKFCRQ
Experimental: (§1) (1) Determination of the affinity of the diarylo[a,g]quinolizines of formula (I) and derivatives thereof on dopamine D1, dopamine D2, 5-HT1A and 5-HT2A receptors.
(§2) The compound of the invention at different concentrations (10^−5 M-10^−11 M), an isotope receptor ligand and a receptor protein were loaded into a reaction tube, incubated at 30° C. in a water bath for 60 min, and then terminated in a refrigerator. The mixture was filtered through suction filtration using GF/C glass fiber paper on a Millipore filter (millipore) cell sample collector, and dried. The resulting sample was placed into a 0.5 mL tube, added with 500 μL of liquid scintillation fluid, and counted for measuring the intensity of radioativity.
For 5-HT1A receptor: isotope receptor ligand [3H]8-OH-DPAT; 5-HT1A receptor protein expressed in HEK-293 cells;
(§3) Firstly, the above […] were dissolved in DMSO and then diluted with double distilled water to the appropriate concentration (10^−5 M-10^−11 M).
(§4) (+) Butaclamo was purchased from RBI Company, GF/C glass fiber filter paper was purchased from Whatman Co., liquid scintillation fluid (dopamine D1, D2 receptors)/liposoluble scintillation fluid (5-HT1A. 5-HT2A receptor), Beckman LS-6500 multi-function liquid scintillation counter.

dopamine D2 receptor = dopamine D2 receptor (Rattus norvegicus, UniProt P61169); assay: Radioligand binding affinity on dopamine D2 receptor ([3H]Spiperone); conditions: D2 receptor protein expressed in HEK-293 cells
Experimental: as §2, §3, §4

dopamine D1 receptor = dopamine D1 receptor (Macaca mulatta, UniProt O77680); assay: Radioligand binding affinity on dopamine D1 receptor ([3H]-SCH23390); conditions: D1 receptor protein expressed in HEK-293 cells
Experimental: as §2, §3, §4

5-HT2A receptor = biological target: T2, 5-HT2A receptor (Homo sapiens, UniProt P28223); assay: Radioligand binding affinity on 5-HT2A receptor ([3H]-Ketanserin); conditions: 5-HT2A receptor protein expressed in HEK-293 cells
T2 construct: expressed in transfected cells; host or cells: HEK-293
Experimental: as §1, §2
For 5-HT2A receptor: isotope receptor ligand [3H]-Ketanserin; 5-HT2A receptor protein expressed in HEK-293 cells;
as §3, §4

dopamine D1 receptor, sequence (O77680 whole entry): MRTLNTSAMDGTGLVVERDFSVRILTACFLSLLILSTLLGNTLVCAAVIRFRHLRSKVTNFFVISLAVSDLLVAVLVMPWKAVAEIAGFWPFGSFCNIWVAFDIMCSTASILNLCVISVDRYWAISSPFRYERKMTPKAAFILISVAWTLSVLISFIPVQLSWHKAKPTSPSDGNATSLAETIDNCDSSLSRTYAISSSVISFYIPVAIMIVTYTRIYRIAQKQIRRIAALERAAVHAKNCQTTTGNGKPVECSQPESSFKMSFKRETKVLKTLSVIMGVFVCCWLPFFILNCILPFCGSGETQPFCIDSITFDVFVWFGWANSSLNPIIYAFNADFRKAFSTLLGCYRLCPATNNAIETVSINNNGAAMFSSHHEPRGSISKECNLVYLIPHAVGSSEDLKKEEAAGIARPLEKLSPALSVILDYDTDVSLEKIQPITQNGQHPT
T2 sequence (P28223 whole entry): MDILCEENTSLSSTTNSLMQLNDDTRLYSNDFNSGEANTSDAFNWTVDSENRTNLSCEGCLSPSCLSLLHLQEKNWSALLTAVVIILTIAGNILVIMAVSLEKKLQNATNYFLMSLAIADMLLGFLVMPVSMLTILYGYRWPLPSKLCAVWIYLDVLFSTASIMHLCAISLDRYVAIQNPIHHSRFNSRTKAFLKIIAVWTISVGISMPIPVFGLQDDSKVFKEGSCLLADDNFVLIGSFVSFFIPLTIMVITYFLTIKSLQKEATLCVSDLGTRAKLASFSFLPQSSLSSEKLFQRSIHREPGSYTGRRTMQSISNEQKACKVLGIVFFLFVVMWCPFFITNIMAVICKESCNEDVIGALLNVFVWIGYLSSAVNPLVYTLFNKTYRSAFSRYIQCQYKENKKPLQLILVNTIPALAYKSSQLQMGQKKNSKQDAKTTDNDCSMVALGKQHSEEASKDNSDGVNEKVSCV
dopamine D2 receptor, sequence (P61169 whole entry): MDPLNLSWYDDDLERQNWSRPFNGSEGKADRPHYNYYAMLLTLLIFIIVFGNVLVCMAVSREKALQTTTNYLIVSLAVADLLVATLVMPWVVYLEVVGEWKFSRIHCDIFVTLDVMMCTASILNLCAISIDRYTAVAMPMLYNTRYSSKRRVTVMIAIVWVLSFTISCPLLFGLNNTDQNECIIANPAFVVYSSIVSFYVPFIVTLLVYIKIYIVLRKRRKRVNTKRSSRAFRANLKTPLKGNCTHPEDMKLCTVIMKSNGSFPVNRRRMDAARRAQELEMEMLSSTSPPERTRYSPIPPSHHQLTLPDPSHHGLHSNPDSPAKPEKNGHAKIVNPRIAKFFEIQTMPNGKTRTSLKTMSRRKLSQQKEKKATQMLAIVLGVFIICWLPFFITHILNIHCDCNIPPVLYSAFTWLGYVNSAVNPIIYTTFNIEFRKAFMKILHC

Row | Compound | 5-HT1A receptor inhibition % (5-HT1A receptor) [%] | IC50 (5-HT1A receptor) [nM] | Ki (5-HT1A receptor) [nM] | D2 receptor inhibition % (dopamine D2 receptor) [%] | IC50 (dopamine D2 receptor) [nM] | Ki (dopamine D2 receptor) [nM] | D1 receptor inhibition % (dopamine D1 receptor) [%] | Ki (dopamine D1 receptor) [nM] | 5-HT2A receptor inhibition % (5-HT2A receptor) [%] | IC50 (dopamine D1 receptor) [nM] | IC50 (5-HT2A receptor) [nM] | Ki (5-HT2A receptor) [nM]
1 | COc1cc2c(cc1O)[C@@H]1Cc3sc(CCCl)cc3CN1CC2 [DS013, (S)-2-hydroxy-3-methoxy-10-(2-chloroethyl)-5,8,12, 12a-tetrahydro-6H-benzo[a]thieno[3,2-g]quinolizine] | 89.84 | 692 ± 102 | 553 ± 81.6 | 98.37 | 146 ± 7.19 | 34.4 ± 2.72 | 98.64 | 16.4 ± 2.81 | 34.81 | – | – | –
2 | COc1cc2c(cc1OC)CN1CCc3c([nH]c4ccccc34)[C@@H]1C2 [AI001, (S)-2,3-dimethoxy-5,7,8,13,13b,14-hexahydroindolo [2′,3′:3,4]pyrido[1,2-b]isoquinoline] | 88.22 | 911 ± 130 | 728 ± 104 | – | – | – | – | – | 50.46 | – | – | –
3 | COc1c(O)ccc2c1CN1CCc3sc(C)cc3[C@H]1C2 [AS004, (R)-2-methyl-8-methoxy-9-hydroxy-4,7,12,12a-tetrahydro-5H-benzo[g]thieno[3,2-a]quinolizine] | 51.69 | – | – | 6.97 | – | – | 86.32 | 115 ± 22.4 | 44.24 | 230 ± 44.8 | – | –
4 | COc1cc2c(cc1O)[C@@H]1Cc3sc(CCCCl)cc3CN1CC2 [DS015, (S)-2-hydroxy-3-methoxy-10-(3-chloropropyl)-5,8, 12,12a-tetrahydro-6H-benzo[a]thieno[3,2-g]quinolizine] | 92.24 | 148 ± 28.6 | 119 ± 23 | 97.19 | 55.1 ± 6.89 | 18.4 ± 2.3 | 96.10 | 77 ± 2.85 | – | 144 ± 5.35 | – | –
5 | COc1cc2c(cc1O)[C@@H]1Cc3sccc3CN1CC2 [DS001, (S)-2-hydroxy-3-methoxy-5,8,12,12a-tetrahydro-6H-benzo[a]thieno[3,2-g]quinolizine] | – | – | – | – | 396 ± 68.2 | 88 ± 15.2 | – | 87 ± 4.3 | – | 172 ± 8.49 | – | –
6 | COc1cc2c(cc1O)[C@@H]1Cc3sc(CC(C)C)cc3CN1CC2 [DS006, (S)-2-hydroxy-3-methoxy-10-(2-methylpropyl)-5,8, 12,12a-tetrahydro-6H-benzo[a]thieno[3,2-g]quinolizine] | 83.71 | – | – | – | – | – | – | – | 50.31 | – | – | –
7 | COc1c(NC(C)=O)ccc2c1CN1CCc3sccc3[C@@H]1C2 [AS051, (S)-8-methoxy-9-acetylamino-4,7,12,12a-tetrahydro-5H-benzo[g]thieno[3,2-a]quinolizine] | 33.90 | – | – | 1.29 | – | – | 76.38 | – | 46.59 | – | – | –
8 | COc1ccc(OC)c2c1C[C@H]1c3cc(C)sc3CCN1C2 [AS032, (S)-2-methyl-8,11-dimethoxy-4,7,12,12a-tetrahydro-5H-benzo[g]thieno[3,2-a]quinolizine] | 74.09 | – | – | 13.75 | – | – | 96.00 | 159 ± 28.9 | 30.01 | 416 ± 26.9 | – | –
9 | COc1c(N)ccc2c1CN1CCc3sccc3[C@@H]1C2 [AS050, (S)-8-methoxy-9-amino-4,7,12,12a-tetrahydro-5H-benzo[g]thieno[3,2-a]quinolizine] | 49.26 | – | – | 22.63 | – | – | 99.02 | 685 ± 72.2 | 74.25 | 1520 ± 357 | – | –
10 | CCCCc1cc2c(s1)C[C@H]1c3cc(O)c(OC)cc3CCN1C2 [DS007, (S)-2-hydroxy-3-methoxy-10-n-butyl-5,8,12,12a-tetrahydro-6H-benzo[a]thieno[3,2-g]quinolizine] | 87.03 | 1080 ± 96.7 | 864 ± 77.3 | 99.53 | 76.3 ± 8.46 | 17.6 ± 1.95 | 97.62 | 62.2 ± 7.13 | 53.34 | 113 ± 13 | – | –
11 | COc1ccc2c(c1OC)CN1CCc3sc(C)cc3[C@@H]1C2 [AS023, (S)-2-methyl-8,9-dimethoxy-4,7,12,12a-tetrahydro-5H-benzo[g]thieno[3,2-a]quinolizine] | 76.45 | – | – | 22.17 | – | – | 89.62 | 357 ± 7.83 | 60.08 | 714 ± 15.7 | – | –
12 | COc1cc2c(cc1O)[C@@H]1Cc3sc(CCC(C)C)cc3CN1CC2 [DS008, (S)-2-hydroxy-3-methoxy-10-(3-methylbutyl)-5,8,12, 12a-tetrahydro-6H-benzo[a]thieno[3,2-g]quinolizine] | – | – | – | 90.45 | 239 ± 14.7 | 79.5 ± 4.83 | 88.78 | – | – | – | – | –
13 | COc1cc2c(cc1O)[C@@H]1Cc3sc(CCCCCl)cc3CN1CC2 [DS016, (S)-2-hydroxy-3-methoxy-10-(4-chlorobutyl)-5,8,12, 12a-tetrahydro-6H-benzo[a]thieno[3,2-g]quinolizine] | – | – | – | 93.54 | 150 ± 23.4 | 49.9 ± 7.8 | 95.84 | 158 ± 10.7 | – | 297 ± 20.1 | – | –
14 | COc1c(O)ccc2c1CN1CCc3sc(C)cc3[C@@H]1C2 [AS003, (S)-2-methyl-8-methoxy-9-hydroxy-4,7,12,12a-tetrahydro-5H-benzo[g]thieno[3,2-a]quinolizine] | 91.91 | 514 ± 111 | 405 ± 87.1 | 40.31 | – | – | 99.80 | 37.9 ± 2.21 | 90.43 | 74 ± 4.3 | 2230 ± 46.5 | 1070 ± 22.4
15 | CCc1cc2c(s1)CCN1Cc3c(ccc(O)c3OC)C[C@@H]21 [AS005, (S)-2-ethyl-8-methoxy-9-hydroxy-4,7,12,12a-tetrahydro-5H-benzo[g]thieno[3,2-a]quinolizine] | 98.58 | 162 ± 3.8 | 130 ± 3.03 | 62.98 | – | – | 98.23 | 47.6 ± 6.18 | 76.11 | 86.8 ± 11.3 | – | –
16 | CCCc1cc2c(s1)C[C@H]1c3cc(O)c(OC)cc3CCN1C2 [DS005, (S)-2-hydroxy-3-methoxy-10-n-propyl-5,8,12,12a-tetrahydro-6H-benzo[a]thieno[3,2-g]quinolizine] | 85.33 | 2460 ± 286 | 1970 ± 229 | 96.31 | 171 ± 9.5 | 38.6 ± 2.15 | 96.74 | 61.7 ± 6.88 | 29.55 | 113 ± 12.6 | – | –
